This is an account of results in patent US20260176267A1, “PREPARATION OF IMIDAZOPYRIDINE AND IMIDAZOPYRIDAZINE DERIVATIVES AS NOVEL DIACYLGLYCERIDE O-ACYLTRANSFERASE 2 INHIBITORS” (Merck Sharp & Dohme LLC, priority 2022, published 2026).

SMILES strings stand for the structures.

The term IC50 denotes the concentration needed to halve the response being measured. A high value points to lower potency.

The target of this assay is T1, human DGAT2 (hDGAT2) (Homo sapiens, UniProt Q96PD7).
T1 construct: made in house; host or cells: Sf-9 insect cells (baculovirus), membrane fraction
T1 sequence (Q96PD7 1-388): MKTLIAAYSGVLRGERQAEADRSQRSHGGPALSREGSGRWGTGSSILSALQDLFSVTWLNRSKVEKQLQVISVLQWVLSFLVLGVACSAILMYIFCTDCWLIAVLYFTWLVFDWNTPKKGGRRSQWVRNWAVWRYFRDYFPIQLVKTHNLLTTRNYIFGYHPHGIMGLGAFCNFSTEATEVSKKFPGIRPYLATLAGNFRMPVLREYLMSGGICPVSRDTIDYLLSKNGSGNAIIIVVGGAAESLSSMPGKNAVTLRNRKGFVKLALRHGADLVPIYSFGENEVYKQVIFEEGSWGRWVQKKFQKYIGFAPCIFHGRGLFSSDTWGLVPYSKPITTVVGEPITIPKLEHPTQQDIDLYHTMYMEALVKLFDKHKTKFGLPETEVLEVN
As to the kind of experiment: DGAT2 Enzymatic Activity Assay. In kind it is biochemical. Particulars: membrane prep of Sf-9 cells expressing hDGAT2; 13C18-triolein product by LC/MS/MS; 25 μM diolein, 5 μM 13C oleoyl-CoA, rt. In outline: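 Membranes from Sf-9 cells expressing untagged human DGAT2 (baculovirus, 48 h) used as enzyme at rt. The product ^13C18-triolein is quantified by LC/MS/MS against a ^13C21-triolein internal standard. Percent inhibition is taken from high and low controls, and IC50 is derived.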
Consider `Cc1c(C(=O)NC2(C)CCS(=O)(=O)CC2)nc2cc(F)c(Oc3ncc(F)cc3OCC(F)(F)F)cn12` [Example 118, 7-fluoro-6-[[5-fluoro-3-(2,2,2-trifluoroethoxy)-2-pyridyl]oxy]-3-methyl-N-(4-methyl-1,1-dioxo-thian-4-yl)imidazo[1,2-a]pyridine-2-carboxamide], for which the IC50 is 1.4 nM.

As for `Cc1cnc(Oc2ccc3nc(C(=O)NC4(C)CCS(=O)(=O)CC4)c(C)n3c2)c(OCC(F)(F)F)n1` [Example 78, 3-methyl-N-(4-methyl-1,1-dioxo-thian-4-yl)-6-[5-methyl-3-(2,2,2-trifluoroethoxy)pyrazin-2-yl]oxy-imidazo[1,2-a]pyridine-2-carboxamide], the IC50 worked out at 3 nM. The value for `CC1(NC(=O)c2cn3nc(Oc4ncc(F)cc4OCC4CC4)ccc3n2)CCS(=O)(=O)CC1` [Example 157, 6-[[3-(Cyclopropylmethoxy)-5-fluoro-2-pyridyl]oxy]-N-(4-methyl-1,1-dioxo-thian-4-yl)imidazo[1,2-b]pyridazine-2-carboxamide] was 18 nM; that for `Cc1c(C(=O)NC2(C)CCS(=O)(=O)CC2)nc2ccc(Oc3ncc(C(C)C)cc3OCC(F)(F)F)cn12` [Example 75, 6-[[5-isopropyl-3-(2,2,2-trifluoroethoxy)-2-pyridyl]oxy]-3-methyl-N-(4-methyl-1,1-dioxo-thian-4-yl)imidazo[1,2-a]pyridine-2-carboxamide] was 6.6 nM. With `CC(C)c1c(Oc2ncc(Cl)cc2OCC(F)(F)F)ccc2nc(C(=O)NC3(C)CCS(=O)(=O)CC3)cn12` [Example 49, 6-[[5-chloro-3-(2,2,2-trifluoroethoxy)-2-pyridyl]oxy]-5-isopropyl-N-(4-methyl-1,1-dioxo-thian-4-yl)imidazo[1,2-a]pyridine-2-carboxamide] the figure was 12 nM; with `Cc1c(C(=O)NC2(C)CCS(=O)(=O)CC2)nc2ccc(Oc3ncc(F)cc3OCC(F)(F)C(F)F)cn12` [Example 104, 6-[[5-fluoro-3-(2,2,3,3-tetrafluoropropoxy)-2-pyridyl]oxy]-3-methyl-N-(4-methyl-1,1-dioxo-thian-4-yl)imidazo[1,2-a]pyridine-2-carboxamide], 342 nM; with `CC1(NC(=O)c2nc3ccc(Oc4ncccc4OCC(F)(F)F)cn3c2O)CCS(=O)(=O)CC1` [Example 131, 3-hydroxy-N-(4-methyl-1,1-dioxo-thian-4-yl)-6-[[3-(2,2,2-trifluoroethoxy)-2-pyridyl]oxy]imidazo[1,2-a]pyridine-2-carboxamide], 34 nM. With `CC1(NC(=O)c2cn3cc(Oc4ncccc4O)ccc3n2)CCS(=O)(=O)CC1` [Example 60, 6-[(3-hydroxy-2-pyridyl)oxy]-N-(4-methyl-1,1-dioxo-thian-4-yl)imidazo[1,2-a]pyridine-2-carboxamide] the figure was > 9990 nM; with `Cc1c(C(=O)NC2(C)CCS(=O)(=O)CC2)nc2ccc(Oc3ncc(C(C)(C)O)cc3OCC(F)(F)F)cn12` [Example 146, 6-[[5-(1-hydroxy-1-methyl-ethyl)-3-(2,2,2-trifluoroethoxy)-2-pyridyl]oxy]-3-methyl-N-(4-methyl-1,1-dioxo-thian-4-yl)imidazo[1,2-a]pyridine-2-carboxamide], 102 nM; with `Cc1c(C(=O)NC2(C)CS(=O)(=O)C2)nc2ccc(Oc3ncc(C(F)(F)F)nc3OCC(F)(F)F)cn12` [Example 103, 3-methyl-N-(3-methyl-1,1-dioxo-thietan-3-yl)-6-[3-(2,2,2-trifluoroethoxy)-5-(trifluoromethyl)pyrazin-2-yl]oxy-imidazo[1,2-a]pyridine-2-carboxamide], 71 nM. Regarding `CC1(NC(=O)c2cn3nc(Oc4ncc(F)cc4OCC4(F)CC4)ccc3n2)CCS(=O)(=O)CC1` [Example 155, 6-[[5-Fluoro-3-[(1-fluorocyclopropyl)methoxy]-2-pyridyl]oxy]-N-(4-methyl-1,1-dioxo-thian-4-yl)imidazo[1,2-b]pyridazine-2-carboxamide], the IC50 was found to be 186 nM. With `CC1(NC(=O)c2nc3ccc(Oc4ncccc4OCC(F)(F)F)cn3c2C(F)(F)F)CCS(=O)(=O)CC1` [Example 136, N-(4-methyl-1,1-dioxo-thian-4-yl)-6-[[3-(2,2,2-trifluoroethoxy)-2-pyridyl]oxy]-3-(trifluoromethyl)imidazo[1,2-a]pyridine-2-carboxamide] the figure was 146 nM; with `Cc1c(C(=O)NC2(CC#N)CCS(=O)(=O)CC2)nc2ccc(Oc3ncc(Cl)cc3OCC(F)F)cn12` [Example 76, 6-[[5-chloro-3-(2,2-difluoroethoxy)-2-pyridyl]oxy]-N-[4-(cyanomethyl)-1,1-dioxo-thian-4-yl]-3-methyl-imidazo[1,2-a]pyridine-2-carboxamide], 1.2 nM. With `CCC1(NC(=O)c2nc3ccc(Oc4ncc(F)cc4OCC(F)F)cn3c2C)CS(=O)(=O)C1` [Example 70, 6-[[3-(2,2-difluoroethoxy)-5-fluoro-2-pyridyl]oxy]-N-(3-ethyl-1,1-dioxo-thietan-3-yl)-3-methyl-imidazo[1,2-a]pyridine-2-carboxamide] the figure was 74.3 nM; with `CC1(NC(=O)c2nc3ccc(Oc4ncccc4OCC(F)(F)F)cn3c2CO)CCS(=O)(=O)CC1` [Example 137, 3-(hydroxymethyl)-N-(4-methyl-1,1-dioxo-thian-4-yl)-6-[3-(2,2,2-trifluoroethoxy)pyridine-2-yl]oxy-imidazo[1,2-a]pyridine-2-carboxamide], 11 nM; with `Cc1c(C(=O)NC2(C)CCS(=O)(=O)CC2)nc2ccc(OCc3ccc(F)cc3)cn12` [Example 126, 6-[(4-fluorophenyl)methoxy]-3-methyl-N-(4-methyl-1,1-dioxo-thian-4-yl)imidazo[1,2-a]pyridine-2-carboxamide], 465 nM. The value for `Cc1c(Oc2nccnc2OCC(F)(F)F)cc(F)c2nc(C(=O)NC3(C)CCS(=O)(=O)CC3)cn12` [Example 44, 8-fluoro-5-methyl-N-(4-methyl-1,1-dioxo-thian-4-yl)-6-[3-(2,2,2-trifluoroethoxy)pyrazin-2-yl]oxy-imidazo[1,2-a]pyridine-2-carboxamide] was 68 nM. In turn, `Cc1c(C(=O)NC2(C)CS(=O)(=O)C2)nc2ccc(Oc3ncccc3OCC(F)F)cn12` [Example 90, 6-[[3-(2,2-difluoroethoxy)-2-pyridyl]oxy]-3-methyl-N-(3-methyl-1,1-dioxo-thietan-3-yl)imidazo[1,2-a]pyridine-2-carboxamide] showed an IC50 of 5 nM.

Take `Cc1c(C(=O)NC2(C)CCS(=O)(=O)CC2)nc2ccc(Oc3ncc(Cl)cc3OCC(F)(F)F)cn12` [Example 61, 6-[[5-chloro-3-(2,2,2-trifluoroethoxy)-2-pyridyl]oxy]-3-methyl-N-(4-methyl-1,1-dioxo-thian-4-yl)imidazo[1,2-a]pyridine-2-carboxamide]: the IC50 turned out to be 3 nM.

`Cc1c(C(=O)NC2(C)CCS(=O)(=O)CC2)nc2ccc(OCc3ncccc3OCC(F)(F)F)cn12` [Example 123, 3-methyl-N-(4-methyl-1,1-dioxo-thian-4-yl)-6-[[3-(2,2,2-trifluoroethoxy)-2-pyridyl]methoxy]imidazo[1,2-a]pyridine-2-carboxamide]: half-maximal inhibition (IC50) was put at 93 nM. Turning to `CCc1c(C(=O)NC2(C)CCS(=O)(=O)CC2)nc2ccc(Oc3ncccc3OCC(F)(F)F)cn12` [Example 115, 3-ethyl-N-(4-methyl-1,1-dioxo-thian-4-yl)-6-[[3-(2,2,2-trifluoroethoxy)-2-pyridyl]oxy]imidazo[1,2-a]pyridine-2-carboxamide], the midpoint of inhibition, the IC50, lay at 44 nM. The value for `CCOc1cc(C(F)(F)F)cnc1Oc1ccc2nc(C(=O)NC3(C)CCS(=O)(=O)CC3)c(C)n2c1` [Example 95, 6-[[3-ethoxy-5-(trifluoromethyl)-2-pyridyl]oxy]-3-methyl-N-(4-methyl-1,1-dioxo-thian-4-yl)imidazo[1,2-a]pyridine-2-carboxamide] was 3 nM. The value for `O=C(NC1CCOc2c(F)cc(F)cc21)c1cn2cc(Oc3ncccc3OCC(F)(F)F)ccc2n1` (centres unmarked) [Example 51, N-(6,8-difluorochroman-4-yl)-6-[[3-(2,2,2-trifluoroethoxy)-2-pyridyl]oxy]imidazo[1,2-a]pyridine-2-carboxamide] was 123 nM. With `Cc1c(C(=O)NC2(C)CCS(=O)(=O)CC2)nc2ccc(Oc3ncc(F)cc3OCC(F)(F)F)cn12` [Example 88, 6-[[5-fluoro-3-(2,2,2-trifluoroethoxy)-2-pyridyl]oxy]-3-methyl-N-(4-methyl-1,1-dioxo-thian-4-yl)imidazo[1,2-a]pyridine-2-carboxamide] the figure was 8.3 nM; with `Cc1c(C(=O)NC2(C)CN(C(=O)C(F)(F)F)C2)nc2ccc(Oc3ncc(F)cc3OCC(F)(F)F)cn12` [Example 89, 6-[[5-fluoro-3-(2,2,2-trifluoroethoxy)-2-pyridyl]oxy]-3-methyl-N-[3-methyl-1-(2,2,2-trifluoroacetyl)azetidin-3-yl]imidazo[1,2-a]pyridine-2-carboxamide], 20 nM; with `O=C(NC1(CC(F)(F)F)CCS(=O)(=O)CC1)c1cn2cc(Oc3ncc(Cl)cc3OCC(F)(F)F)ccc2n1` [Example 5, 6-[[5-chloro-3-(2,2,2-trifluoroethoxy)-2-pyridyl]oxy]-N-[1,1-dioxo-4-(2,2,2-trifluoroethyl)thian-4-yl]imidazo[1,2-a]pyridine-2-carboxamide], 36 nM.
